Data as given in US20220362182A1, “METHODS FOR REVERSING HEPATIC STEATOSIS” (BRIGHTSEED, INC., priority 2020, published 2022).
Entries after “also recorded” stand apart in the source; their conditions may differ.

Tests used:
SPNS2 mRNA [1] = assay: SPNS2 qPCR in mouse liver; assay type: in vivo
Description: Quantitative PCR (Q-PCR) from in vitro cell culture experiments used total RNA purified using RNeasy Kits (Qiagen). For liver tissue samples, total RNA was isolated using Trizol (Invitrogen) and prepared for RNAseq (mouse liver DMSO and NCT, N=3). cDNA was amplified using 3 μg of total RNA using qScript cDNA SuperMix (Quanta BioSciences, Beverly, Mass., USA). QPCR analysis was performed using SYBR® Select Master Mix (Applied Biosystems) and ABI 7900HT (Applied Biosystems, Thermo Fisher Scientific). The Ct values of mRNA expression were then normalized to the 18 s rRNA values and are expressed as fold change over samples from mice fed normal chow for in vivo experiments or DMSO controls for cell culture experiments.

[2] = assay type: in vivo; conditions: mice, 30, 60, 120 and 240 mg/kg bid for 3 days, IP
Description: For dose response experiments, mice were injected intraperitoneally with 10% DMSO as vehicle control or 4 different doses of NCT (30, 60, 120 and 240 mg/kg of body weight) dissolved in 10% DMSO. Mice received 2 doses per day with a 5 h interval between injections for 3 days. To test the effect of NCT (Sundia MediTech Company, Ltd., Custom synthesis), 200 mg/kg was injected IP bid for 14 days. On day 15, mice received a final dose of NCT followed by IP injection with 3 g/kg dextrose. One h later, blood samples were collected and mice were euthanized using pentobarbital. Total mouse, liver and epididymal fat pad weights were measured. Dissected liver samples were washed in cold PBS, cut into small pieces and distributed for analyses. For RNA isolation and ELISA, liver samples were snap frozen using liquid nitrogen and stored at −80° C. For histomorphometry and immunofluorescence analysis, liver samples were fixed in 4% of cold PFA and processed for histology. All animal experiments were approved by the Institutional Animal Care and Use Committee (IACUC) of the Sanford Burnham Prebys Medical Discovery Institute in accordance with national regulations.
Having established that NCT reduces the level of stored fat in cells in vitro, it was of interest to determine its effect in vivo. […]

SPNS2 mRNA [3] = assay: SPNS2 mRNA in primary human hepatocytes; assay type: cell-based; conditions: high fat media, 5, 15, 40 µM, Day 4 to Day 10
Description: Experiments with primary human hepatocytes were performed by CN-Bio (Cambridge, UK). Primary human hepatocytes (PHHs), human Kupffer cells (HKs) and human stellate cells (HSCs) were seeded onto CN-Bio's PhysioMimix LC12 MPS culture plates at 6×10^5 cells for PHHs and 6×10^4 cells for HKs and HSCs in 1.6 ml of CN-Bio's HEP-lean media with 5% FCS. Throughout the experiment the cells were maintained at a flow rate of 1 μl/s. After 24 h (Day 1) of seeding, the media was changed to HEP-lean media and the cells were incubated until day 4 to allow the cells to form microtissues. At day 4 post seeding, media was changed to HEP-fat media and treated with DMSO or NCT (5, 15, 40 μM). Media was replaced on days 6 and 8. Cells were harvested on day 10 for RNA extraction. Data are presented as mean ±SEM of three or more samples as indicated. Statistical significance was assessed using Student's t-test, ANOVA or R^2 coefficient of correlation.

dihydroceramides = assay: lipidomic analysis of livers from mice injected IP; assay type: in vivo, mouse; conditions: livers from mice injected IP for 2 weeks
Description: Ceramides and dihydroceramides were measured in the UCSD Lipidomics Core Facility as previously described (Quehenberger et al.). Briefly, samples were extracted using the butanol: methanol (BUME) method. The lipid layer was collected and run on a Thermo-Vanquish UPLC (Thermo Scientific) with a Cortecs T3 (C18), 2.1 mm×150 mm; 1.8 uT3 column and a binary solvent system. Mass spectrometry employed a Thermo Q Exactive instrument with MS/MS data dependent acquisition scan mode and LipidSearch software (Thermo Fisher Scientific).

O=C(/C=C/c1ccc(O)c(O)c1)NCCc1ccc(O)cc1 [NCT, N-trans-caffeoyltyramine]
SPNS2 expression in mouse liver (SPNS2 mRNA [1]): did not induce a change in SPNS2 expression; also recorded: not mouse liver | tolerability [2]: well tolerated | SPNS2 mRNA (SPNS2 mRNA [3]): did not induce a change in SPNS2 expression | decrease in ceramide/dihydroceramide ratio in liver (dihydroceramides): evident as well
